We go through one molecule from patent US7629310B2, “RhoB as a suppressor of cancer cell growth, cell transformation, and metastasis” (University of South Florida, priority 2000, dated 2009).

Data set [1] deals with RhoB promoter. The data set can be described thus: RhoB promoter transcriptional activity (luciferase reporter) in NIH3T3 cells. It counts as cell-based. From the text: Gene Constructs and RhoB Promoter Transcriptional Activity Assay. Constitutively active H-Ras61L, K-RasV12, N-RasV12, and dominant negative […]-Ras were kind gifts from Dr. Channing Der (University of North Carolina) (Khosravi-Far, R. et al., Mol Cell Biol, 1995, 15:6443-53; Quilliam, L. A. et al., Mol Cell Biol, 1994, 14:1113-21). Wild-type RhoA and RhoB were subcloned into hemaglutinin (HA)-tagged pcDNA3 (INVITROGEN). The orientation and the sequences of these genes were confirmed by DNA sequencing facilities at the H. Lee Moffitt Cancer Center, Tampa, Fla. RhoB promoter construct pGEI was kindly provided by Dr Y. Monden (Banyu Tsukuba Research, Japan) (Nakamura et al., 1996). pCMV-β-galactosidase vector was purchased from INVITROGEN. The plasmid containing CA-, DN-PI3K, Mek and Akt were kindly provided by Dr. Julie Y. Djeu (H. Lee Moffitt Cancer and Research Institute, Tampa, Fla.) (Jiang, K. et al., Blood, 2003, 101:236-44). β-galactosidase activity and luciferase assay kits were purchased from PROMEGA Corporation, Madison, Wis. The serum response element (SRE) reporter was provided by Dr. Richard Jove, H. Lee Moffitt Cancer and Research Institute, Tampa, Fla. (Turkson, J. et al., Mol Cell Biol, 1999, 19:7519-28). […] Richard Jove, Oncology program, H. Lee Moffitt Cancer and Research Institute, Tampa, Fla. (Turkson, J. et al., Mol Cell Biol, 1999, 19:7519-28). […] (Luetteke, N. C. et al., Genes Dev, 1994, 8:399-413). DNA transfection was performed with the standard lipofectamine protocol (INVITROGEN). […] After transfection the cells were grown for another 36-48 h. Cells were then washed twice with PBS and lyzed in Promega Passive Lysis Buffer. Aliquots of the lysates were then used to measure the luciferase and β-galactosidase activities. The luciferase values were first divided by β-galactosidase values. The RhoB promoter transcriptional activity was determined by dividing the luciferase/β-Gal values from oncogene-transfected cells by those from pcDNA3-transfected cells. […] All the samples were performed in triplicate and the averages of 3 independent experiments were reported here.

The test system of data set [2] is RhoB promoter. In words: RhoB promoter transcriptional activity (luciferase reporter) in human cancer cell lines A-549, Panc-1, C33A. It counts as cell-based. The settings on record: PANC-1 and A-549 cells expressing mutated K-Ras. The source says: Gene Constructs and RhoB Promoter Transcriptional Activity Assay. Constitutively active H-Ras61L, K-RasV12, N-RasV12, and dominant negative […]-Ras were kind gifts from Dr. Channing Der (University of North Carolina) (Khosravi-Far, R. et al., Mol Cell Biol, 1995, 15:6443-53; Quilliam, L. A. et al., Mol Cell Biol, 1994, 14:1113-21). Wild-type RhoA and RhoB were subcloned into hemaglutinin (HA)-tagged pcDNA3 (INVITROGEN). The orientation and the sequences of these genes were confirmed by DNA sequencing facilities at the H. Lee Moffitt Cancer Center, Tampa, Fla. RhoB promoter construct pGEI was kindly provided by Dr Y. Monden (Banyu Tsukuba Research, Japan) (Nakamura et al., 1996). pCMV-β-galactosidase vector was purchased from INVITROGEN. The plasmid containing CA-, DN-PI3K, Mek and Akt were kindly provided by Dr. Julie Y. Djeu (H. Lee Moffitt Cancer and Research Institute, Tampa, Fla.) (Jiang, K. et al., Blood, 2003, 101:236-44). β-galactosidase activity and luciferase assay kits were purchased from PROMEGA Corporation, Madison, Wis. The serum response element (SRE) reporter was provided by Dr. Richard Jove, H. Lee Moffitt Cancer and Research Institute, Tampa, Fla. […] Richard Jove, Oncology program, H. Lee Moffitt Cancer and Research Institute, Tampa, Fla. […] Human EGFR, ErbB2 cDNA construct were kindly provided by Dr. Noreen Luetteke, H. Lee Moffitt Cancer and Research Institute, Tampa, Fla. (Luetteke, N. C. et al., Genes Dev, 1994, 8:399-413). DNA transfection was performed with the standard lipofectamine protocol (INVITROGEN). Briefly, cells were plated in 60-mm plates, pGEI plasmid was used at 2 μg per plate, whereas all the other plasmids were used at 0.1-1.0 μg per plate. After transfection the cells were grown for another 36-48 h. Cells were then washed twice with PBS and lyzed in Promega Passive Lysis Buffer. Aliquots of the lysates were then used to measure the luciferase and β-galactosidase activities. The luciferase values were first divided by β-galactosidase values. The RhoB promoter transcriptional activity was determined by dividing the luciferase/β-Gal values from oncogene-transfected cells by those from pcDNA3-transfected cells. […] All the samples were performed in triplicate and the averages of 3 independent experiments were reported here. Proteins that induce malignant transformation and those that suppress tumorigenesis most likely antagonize each other's functions. […] Du, W. et al., Mol Cell Biol, 1999, 19:1831-40; Du, W. and Prendergast, G. C., Cancer Res, 1999, 59:5492-6). An objective of the experiments described herein was to determine whether oncogenes that are prevalent in human cancers suppress RhoB expression, and whether RhoB antagonizes the ability of these oncogenes to induce malignant transformation. To this end, the effects of several oncogenes on RhoB promoter transcriptional activity were first evaluated. NIH3T3 cells and human cancer cell lines derived from lung (A-549), pancreatic (Panc-1) and cervical (C33A) tumors were transiently transfected with pcDNA3 empty vectors or pcDNA3 constructs containing various oncogenes along with full length RhoB promoter firefly luciferase reporter and SRE-renilla luciferase reporter as well as a β-gal reporter for controlling transfection efficiency as described in the Materials and Methods section.
(Reporter assays use an easily measured gene product as a stand-in for the process of interest.)

With `O=c1[nH]cc(F)c(=O)[nH]1` [5-FU, 5-fluorouracil], the “induction of RhoB promoter activity” value with RhoB promoter [1] (NIH3T3, 5-FU 2.0 μM 12 hours (FIG. 6A)) is given as 2 fold; in the data set with RhoB promoter [1] (NIH3T3, 5-FU 2 μM for 12 hours, absence of oncogenes (FIG. 2A)), “more than 4 fold”; in the data set with RhoB promoter [1] (NIH3T3, 5-FU 2 μM for 12 hours, in the presence of H-Ras, N-Ras, and K-Ras (FIG. 2A)) it was “only one fold or less than one fold”. In addition, in the data set on RhoB promoter [2], the “5-FU induction of RhoB promoter activity” value is reported as “both cell lines are resistant to 5-FU”.
